Results on three compounds are retold here after ChEMBL document CHEMBL6109084 (Eur J Med Chem, 2025).

For series [1], the system named is HK-2. Kind of series: Cytotoxicity against human HK-2 cells assessed as reduction in cell viability at 1 to 50 uM incubated for 24 hrs by MTT assay. The format is toxicity, cell-based. Particulars: hk-2, 24 h, dose 1-50 µM.
Series [2] is described as follows: Toxicity in male New Zealand white rabbit assessed as prolongation of bleeding time at 2 mg/kg, iv by ear bleeding assay. The following applies: in vivo. It is filed as organism-based, Oryctolagus cuniculus.
For a further series, the system named is HepG2. In words: Cytotoxicity against human HepG2 cells assessed as reduction in cell viability at 1 to 50 uM incubated for 24 hrs by MTT assay. It is filed as toxicity, cell-based. Particulars: hepg2, 24 h, dose 1-50 µM.
The nature of series [3]: Toxicity in C57BL/6J mouse assessed as prolongation of bleeding time at 10 mg/kg, IG measured after 30 mins by tail bleeding assay. The following applies: in vivo, po, 0.5 h. It is filed as organism-based.
A short description of series [4]: Cytotoxicity against human AC16 [Human hybrid] cells assessed as reduction in cell viability at 1 to 50 uM incubated for 24 hrs by MTT assay. It is filed as toxicity, cell-based. Particulars: dose 1-50 µM.
A short description of series [5]: Selectivity index, ratio of IC50 for inhibition of chymotrypsin (unknown origin) using N-Suc-Ala-Ala-Pro-Phe-pNA as substrate to IC50 for inhibition of human FXIa using p-Glu-Pro-Arg-pNA.HCl as substrate.
A short description of series [6]: Selectivity index, ratio of IC50 for inhibition of tPA (unknown origin) using H-D-Ile-Pro-Arg-pNA-2HCl as substrate to IC50 for inhibition of human FXIa using p-Glu-Pro-Arg-pNA.HCl as substrate.
The nature of series [7]: Selectivity index, ratio of IC50 for inhibition of plasmin (unknown origin) using PyroGlu-Phe-Lys-pNA.HCl as substrate to IC50 for inhibition of human FXIa using p-Glu-Pro-Arg-pNA.HCl as substrate.
Series [8] deals with Tissue-type plasminogen activator (Homo sapiens, UniProt P00750). In words: Inhibition of tPA (unknown origin) using H-D-Ile-Pro-Arg-pNA-2HCl as substrate incubated for 30 mins followed by substrate addition and measured after 60 mins by microplate reader analysis.
Tissue-type plasminogen activator, sequence (P00750 whole entry): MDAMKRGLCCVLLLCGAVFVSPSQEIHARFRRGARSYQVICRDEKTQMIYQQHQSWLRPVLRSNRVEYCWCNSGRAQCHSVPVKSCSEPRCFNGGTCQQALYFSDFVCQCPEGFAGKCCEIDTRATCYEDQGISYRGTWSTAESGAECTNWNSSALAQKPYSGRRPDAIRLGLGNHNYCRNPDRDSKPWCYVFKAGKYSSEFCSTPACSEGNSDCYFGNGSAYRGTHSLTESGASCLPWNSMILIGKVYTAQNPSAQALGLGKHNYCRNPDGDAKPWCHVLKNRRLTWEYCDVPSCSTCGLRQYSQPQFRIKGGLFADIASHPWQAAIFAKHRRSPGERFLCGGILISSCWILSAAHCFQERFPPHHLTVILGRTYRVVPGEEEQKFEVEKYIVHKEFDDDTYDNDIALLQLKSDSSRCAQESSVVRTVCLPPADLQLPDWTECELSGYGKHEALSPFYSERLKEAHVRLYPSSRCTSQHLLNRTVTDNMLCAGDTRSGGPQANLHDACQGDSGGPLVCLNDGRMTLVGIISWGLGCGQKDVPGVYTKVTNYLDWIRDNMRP
In the next series the target is Chymotrypsin (Homo sapiens, UniProt Q99895+P17538+P40313+Q6GPI1). In words: Inhibition of chymotrypsin (unknown origin) using N-Suc-Ala-Ala-Pro-Phe-pNA as substrate incubated for 30 mins followed by substrate addition and measured after 60 mins by microplate reader analysis. The format is protein assay.
The target in a further series is Coagulation factor X (Homo sapiens, UniProt P00742). In words: Inhibition of FXa (unknown origin) using Z-D-Arg-Gly-Arg-pNA.2HCl as substrate incubated for 30 mins followed by substrate addition and measured after 60 mins by microplate reader analysis.
Coagulation factor X, sequence (P00742 41-179 limits assumed): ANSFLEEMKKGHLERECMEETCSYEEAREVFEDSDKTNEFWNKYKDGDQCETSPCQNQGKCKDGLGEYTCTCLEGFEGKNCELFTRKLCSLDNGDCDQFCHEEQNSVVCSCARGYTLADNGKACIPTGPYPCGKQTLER
Coagulation factor X, sequence (P00742 235-488 limits assumed): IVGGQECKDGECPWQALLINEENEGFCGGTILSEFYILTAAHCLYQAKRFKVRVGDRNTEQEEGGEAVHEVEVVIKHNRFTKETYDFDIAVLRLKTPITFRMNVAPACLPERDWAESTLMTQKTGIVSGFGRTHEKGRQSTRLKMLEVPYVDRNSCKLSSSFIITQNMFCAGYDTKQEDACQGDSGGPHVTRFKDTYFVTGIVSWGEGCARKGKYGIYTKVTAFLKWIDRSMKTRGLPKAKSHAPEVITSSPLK
Series [9] has as its system Plasma. Kind of series: Anticoagulant activity in citrated human plasma assessed as prolongation of activated partial thromboplastin time at 1 uM incubated for 3 mins by aPTT reagent based automated coagulometric analysis relative to control. Particulars: 0.05 h. The format is functional.
Series [10] in a line: Selectivity index, ratio of IC50 for inhibition of FXIIa (unknown origin) using H-D-ProPhe-Arg-pNA.2HCl as substrate to IC50 for inhibition of human FXIa using p-Glu-Pro-Arg-pNA.HCl as substrate.
The target of the next series is Plasminogen (Homo sapiens, UniProt P00747). In words: Inhibition of plasmin (unknown origin) using PyroGlu-Phe-Lys-pNA.HCl as substrate incubated for 30 mins followed by substrate addition and measured after 60 mins by microplate reader analysis.
Plasminogen, sequence (P00747 97-580 limits assumed): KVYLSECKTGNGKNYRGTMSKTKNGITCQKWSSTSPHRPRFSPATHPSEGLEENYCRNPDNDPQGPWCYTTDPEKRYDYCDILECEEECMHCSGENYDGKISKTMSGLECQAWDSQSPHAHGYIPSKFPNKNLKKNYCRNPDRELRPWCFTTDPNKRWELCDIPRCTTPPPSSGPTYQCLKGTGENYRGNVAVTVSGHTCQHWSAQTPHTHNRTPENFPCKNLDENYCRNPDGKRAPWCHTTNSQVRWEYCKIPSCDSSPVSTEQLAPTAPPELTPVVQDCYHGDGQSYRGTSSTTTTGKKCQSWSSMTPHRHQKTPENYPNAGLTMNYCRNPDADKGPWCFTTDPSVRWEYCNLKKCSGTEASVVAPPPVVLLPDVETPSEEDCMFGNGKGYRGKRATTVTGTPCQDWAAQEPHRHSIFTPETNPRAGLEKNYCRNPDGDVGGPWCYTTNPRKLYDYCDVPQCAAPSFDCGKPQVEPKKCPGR
Plasminogen, sequence (P00747 581-810 limits assumed): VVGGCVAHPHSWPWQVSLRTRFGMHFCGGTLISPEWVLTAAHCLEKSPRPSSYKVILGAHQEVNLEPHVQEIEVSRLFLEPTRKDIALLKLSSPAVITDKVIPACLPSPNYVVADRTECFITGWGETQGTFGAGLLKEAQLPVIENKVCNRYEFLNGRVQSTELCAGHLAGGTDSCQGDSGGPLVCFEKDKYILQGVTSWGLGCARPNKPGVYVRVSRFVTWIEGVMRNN
Series [11] has as its system Plasma. In words: Anticoagulant activity in citrated human plasma assessed as prolongation of prothrombin time incubated for 3 mins by PT reagent based automated coagulometric analysis. It is filed as functional, cell-free.
A further series addresses Plasma kallikrein (Homo sapiens, UniProt P03952). Kind of series: Inhibition of PKal (unknown origin) using H-D-Pro-Phe-Arg-pNA.2HCl as substrate incubated for 30 mins followed by substrate addition and measured after 60 mins by microplate reader analysis.
The target of a further series is Prothrombin (Homo sapiens, UniProt P00734). Kind of series: Inhibition of thrombin (unknown origin) using H-D-Phe-Pip-Arg-pNA.2HCl as substrate incubated for 30 mins followed by substrate addition and measured after 60 mins by microplate reader analysis.
A further series has as its target Coagulation factor XI (Homo sapiens, UniProt P03951). Kind of series: Inhibition of human FXIa using p-Glu-Pro-Arg-pNA.HCl as substrate incubated for 30 mins followed by substrate addition and measured after 60 mins by microplate reader analysis.
Series [12] is described as follows: Selectivity index, ratio of IC50 for inhibition of FXa (unknown origin) using Z-D-Arg-Gly-Arg-pNA.2HCl as substrate to IC50 for inhibition of human FXIa using p-Glu-Pro-Arg-pNA.HCl as substrate.
Series [13] deals with Plasma. Kind of series: Anticoagulant activity in citrated human plasma assessed as prolongation of activated partial thromboplastin time incubated for 3 mins by aPTT reagent based automated coagulometric analysis. It is filed as functional. Particulars: for EC1.5: 0.05 h.
The next series deals with Trypsin (Homo sapiens, UniProt P07477+P07478+P35030). In words: Inhibition of trypsin (unknown origin) using Bz-Ile-Glu(gamma-OR)-Gly-Arg-pNA.HCl as substrate incubated for 30 mins followed by substrate addition and measured after 60 mins by microplate reader analysis. It is filed as protein assay.
Series [14] can be described thus: Selectivity index, ratio of IC50 for inhibition of trypsin (unknown origin) using Bz-Ile-Glu(gamma-OR)-Gly-Arg-pNA.HCl as substrate to IC50 for inhibition of human FXIa using p-Glu-Pro-Arg-pNA.HCl as substrate.
Series [15] concerns HK-2. Kind of series: Cytotoxicity against human HK-2 cells assessed as reduction in cell viability at 10 to 50 uM incubated for 24 hrs by MTT assay. The format is toxicity, cell-based. Particulars: hk-2, 24 h, dose 10-50 µM.
The next series concerns the target T1, Coagulation factor XII (Homo sapiens, UniProt P00748).
T1 sequence (P00748 whole entry): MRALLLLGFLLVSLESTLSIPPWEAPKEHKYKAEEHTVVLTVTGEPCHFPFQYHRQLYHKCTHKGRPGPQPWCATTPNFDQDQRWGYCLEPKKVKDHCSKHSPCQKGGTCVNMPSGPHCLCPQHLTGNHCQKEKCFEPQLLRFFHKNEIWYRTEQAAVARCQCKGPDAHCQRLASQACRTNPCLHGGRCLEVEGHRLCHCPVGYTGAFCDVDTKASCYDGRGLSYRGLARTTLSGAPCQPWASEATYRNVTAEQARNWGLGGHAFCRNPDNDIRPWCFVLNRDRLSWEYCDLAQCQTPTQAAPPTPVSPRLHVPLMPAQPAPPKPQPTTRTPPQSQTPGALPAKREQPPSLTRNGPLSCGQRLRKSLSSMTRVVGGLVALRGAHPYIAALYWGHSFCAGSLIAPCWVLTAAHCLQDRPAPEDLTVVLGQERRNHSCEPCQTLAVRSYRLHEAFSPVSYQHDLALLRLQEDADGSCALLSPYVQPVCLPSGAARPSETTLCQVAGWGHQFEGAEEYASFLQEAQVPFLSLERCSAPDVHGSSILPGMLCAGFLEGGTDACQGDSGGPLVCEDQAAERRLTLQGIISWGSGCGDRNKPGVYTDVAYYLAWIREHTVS
Kind of series: Inhibition of FXIIa (unknown origin) using H-D-ProPhe-Arg-pNA.2HCl as substrate incubated for 30 mins followed by substrate addition and measured after 60 mins by microplate reader analysis.

The nature of a further series: physchem. Particulars: aqueous medium, pH 7.4.
The nature of series [16]: Selectivity index, ratio of IC50 for inhibition of thrombin (unknown origin) using H-D-Phe-Pip-Arg-pNA.2HCl as substrate to IC50 for inhibition of human FXIa using p-Glu-Pro-Arg-pNA.HCl as substrate.
The nature of series [17]: Toxicity in C57BL/6J mouse assessed as prolongation of bleeding time at 30 mg/kg, IG measured after 30 mins by tail bleeding assay. The format is organism-based. Particulars: in vivo, po, 0.5 h.
Series [18] deals with Plasma. Kind of series: Anticoagulant activity in mouse plasma assessed as prolongation of activated partial thromboplastin time incubated for 3 mins by aPTT reagent based automated coagulometric analysis. The format is functional. The following applies: 0.05 h.

≈ marks a conversion by molar mass, not a printed value. Where “and” joins values, the source holds several entries; their conditions need not be identical. Equal entries are not always repeated. Calls of active or inactive are those of the source. The rule behind the calls is not given here. Bounds are passed on as bounds.

Coagulation factor XI, sequence (P03951 19-387 limits assumed): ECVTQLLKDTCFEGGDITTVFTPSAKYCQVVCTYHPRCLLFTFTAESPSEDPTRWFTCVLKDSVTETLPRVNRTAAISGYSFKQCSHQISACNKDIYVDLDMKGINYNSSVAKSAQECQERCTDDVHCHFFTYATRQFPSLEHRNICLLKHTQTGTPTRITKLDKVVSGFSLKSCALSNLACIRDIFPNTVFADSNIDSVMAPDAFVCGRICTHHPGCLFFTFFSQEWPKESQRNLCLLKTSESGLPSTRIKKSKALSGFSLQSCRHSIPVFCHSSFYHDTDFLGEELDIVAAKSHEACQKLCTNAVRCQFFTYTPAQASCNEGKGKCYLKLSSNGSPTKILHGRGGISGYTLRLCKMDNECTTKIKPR
Coagulation factor XI, sequence (P03951 388-625 limits assumed): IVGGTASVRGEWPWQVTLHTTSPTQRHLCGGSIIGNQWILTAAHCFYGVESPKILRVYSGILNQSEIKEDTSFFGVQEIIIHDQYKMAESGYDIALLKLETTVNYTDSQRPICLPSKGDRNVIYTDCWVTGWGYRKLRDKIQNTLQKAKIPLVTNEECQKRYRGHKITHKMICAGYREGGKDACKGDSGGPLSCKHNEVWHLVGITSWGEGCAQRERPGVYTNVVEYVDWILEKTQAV
Plasma kallikrein, sequence (P03952 20-390 limits assumed): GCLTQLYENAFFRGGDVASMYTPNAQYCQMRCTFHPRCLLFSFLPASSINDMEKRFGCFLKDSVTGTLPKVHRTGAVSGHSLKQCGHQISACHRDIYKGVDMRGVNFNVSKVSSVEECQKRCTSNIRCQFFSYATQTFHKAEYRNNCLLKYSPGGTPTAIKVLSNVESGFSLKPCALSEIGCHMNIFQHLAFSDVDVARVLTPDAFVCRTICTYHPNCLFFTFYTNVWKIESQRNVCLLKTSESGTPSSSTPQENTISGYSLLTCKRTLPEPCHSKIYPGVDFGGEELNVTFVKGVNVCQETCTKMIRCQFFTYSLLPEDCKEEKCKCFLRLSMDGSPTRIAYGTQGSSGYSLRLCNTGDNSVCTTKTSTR
Plasma kallikrein, sequence (P03952 391-638 limits assumed): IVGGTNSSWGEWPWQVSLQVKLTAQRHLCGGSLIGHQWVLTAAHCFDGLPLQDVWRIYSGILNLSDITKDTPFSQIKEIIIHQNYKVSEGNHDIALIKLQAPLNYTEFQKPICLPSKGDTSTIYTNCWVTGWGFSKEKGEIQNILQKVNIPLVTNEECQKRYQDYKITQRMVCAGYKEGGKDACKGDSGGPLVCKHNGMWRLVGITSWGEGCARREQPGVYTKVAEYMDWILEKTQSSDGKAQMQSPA
Description for physchem: Aqueous solubility of the compound in DMSO at pH 7.4 incubated for 12 hrs by turbidimetric based UV spectrophotometric analysis

As to `O=C(NC[C@H]1CN(c2ccc(N3CCOCC3=O)cc2)C(=O)O1)c1ccc(Cl)s1` [RIVAROXABAN], the Activity entry was “Non-toxic” in the series on HK-2 [1]; “Toxic” in series [2]; “Non-toxic” in the series with HepG2; “Toxic” in series [3]; “Non-toxic” in [4].

`CCC(c1cc(-c2ccc(N)nc2)ccn1)n1cc(OC)c(-c2cc(Cl)ccc2-n2cnnn2)cc1=O` (racemic): the Ratio IC50 in [5], in series [6], in series [7], in series [10], in [12] and in [14] was > 1000 in each case. In addition, the Ratio IC50 in series [16] was > 1000. For the same compound, the IC50 in [8] is > 1000 nM; on Chymotrypsin, > 1000 nM; at Coagulation factor X it was > 1000 nM; against Plasminogen, > 1000 nM; against Plasma kallikrein, 81 nM; on Prothrombin it was > 1000 nM. Moreover, the IC50 was 0.37 nM at Coagulation factor XI, > 1000 nM at Trypsin and > 1000 nM on Coagulation factor XII. The Activity in the series with Plasma [9] was 210.1%; with Plasma [13], “Dose-dependent-effect”; in the series with HK-2 [15], “Toxic”. Moreover, the outcome in the series on Plasma [11] was inactive. Also, the EC1.5 in the series on Plasma [13] is 0.58 µM. In “physchem”, this compound gave a kinetic solubility at 12 h of 108 µg/mL (≈ 210 µM).

Turning to `CC[C@@H](C(=O)Nc1ccc(C(N)=O)c(F)c1)n1cc(OC)c(-c2cc(Cl)ccc2-n2cc(C(F)(F)F)nn2)cc1=O`, the Activity result was “Non-toxic” in the series on HK-2 [1]; “Non-toxic” in series [17]; 250.8% in the series with Plasma [9]; “Non-toxic” in the series on HepG2; “Non-toxic” in series [4]; “Dose-dependent-effect” in the series on Plasma [13]. Also, the IC50 (in series [8]; against Chymotrypsin; at Coagulation factor X; on Plasminogen; against Prothrombin; at Trypsin) was > 1000 nM in each case. For the same compound, the IC50 on Coagulation factor XII is > 1000 nM. For the same compound, the EC1.5 entry with Plasma [18] is “>=9.3 uM and >12.5 uM”; with Plasma [13], 0.42 µM.
